Read-outs that look alike come from different tables or passages of the source. Marks after values point to notes of the source that are not given here.
What was measured:
[1] = Liver microsome stability assessment; type: in vitro ADME, rat; details: LCMS analysis of liver microsome assay mixtures
[2] = scale 0–6, cited from earlier work

| SMILES | major metabolic route [1] | CNS MPO score [2] | CNS MPO score ([2]; listed as gabapentin) |
| --- | --- | --- | --- |
| CNCCCOc1ccc(S(=O)(=O)N2c3ccccc3Oc3ccccc32)cc1.O=C(O)C(F)(F)F [Compound 4a, 3-(4-((10H-Phenoxazin-10-yl)sulfonyl)phenoxy)-N-methylpropan-1-amine.TFA] | demethylation |  |  |
| CN(C)CCCOc1ccc(S(=O)(=O)N2c3ccccc3Oc3ccccc32)cc1.O=C(O)C(F)(F)F [Compound 4b, 3-(4-((10H-Phenoxazin-10-yl)sulfonyl)phenoxy)-N,N-dimethylpropan-1-amine.TFA] | demethylation |  |  |
| NCC1(CC(=O)O)CCCCC1 [Gabapentin] |  | 4.2 ^a | 4.2 |
| CN(C)CCCN1c2ccccc2CCc2ccc(Cl)cc21 [clomipramine] |  | 3.1 |  |
| CNCCC=C1c2ccccc2CCc2ccccc21 [nortriptyline] |  | 3.3 |  |
| COc1cccc(C2(O)CCCCC2CN(C)C)c1 (stereo not shown) [tramadol] |  | 4.6 |  |

Reference: article PMC11253866 (RSC Medicinal Chemistry, 2024)
